Measured values taken from patent publication US12691101B2, “Compound and method for preventing or treating of respiratory diseases comprising the same as an active ingredient” (YONSEI UNIVERSITY, UNIVERSITY - INDUSTRY FOUNDATION (UIF), priority 2019, dated 2026).

Experiments:
SLC26A7 = biological target: T1, SLC26A7 (Homo sapiens, UniProt Q8TE54); assay: Cl^−/HCO3^− exchange in CHO-K1 cells expressing SLC26A7; assay type: cell-based
T1 construct: expressed in transfected cells; host or cells: CHO-K1
Experimental: (§1) (A) The inhibition of mouse pendrin (mPDS)-mediated Cl^−/I^− exchange activity by F56 was measured in CHO-K1 cells (mean±S.E., n=5). The indicated concentration of F56 was pretreated for 10 minutes. (B) Summary of dose-response for inhibition of the human pendrin (hPDS)-mediated (closed circle, FIG. (a), C) and mPDS-mediated (open circle) Cl^−/I^− exchange activity. (C-F) Representative traces of intracellular pH in CHO-K1 cells expressing SLC26A3, SLC26A6, SLC26A7 and SLC26A9 were shown. The application of Cl^− free solution induced intracellular alkalization by Cl^−/HCO3^− exchange. The indicated concentration of F56 was pretreated for 10 minutes. (G) the effect of F56 (100 μM) on the CFTR chloride channel activity was measured in FRT cells expressing human CFTR. The CFTR current was activated by 20 μM forskolin and was inhibited by 10 μM CFTRinh-172. (H) The effect of F56 (100 μM) on the AN01 chloride channel activity was measured in FRT cells expressing human AN01. Before 10 minutes prior to AN01 activation by 100 μM ATP, F56 was added. (Right) Peak current summary (mean±S.E., n=3). (I) The effect of F56 on the hERG (Kv11.1) potassium channel activity was measured in HEK293T cells expressing human Kv11.1 (mean±S.E., n=4). […] (J) The effect of F56 on the 5-HT2A channel activity was measured in FRT cells expressing human 5-HT2A (mean±S.E., n=4). […]

SLC26A9 = biological target: T2, SLC26A9 (Homo sapiens, UniProt Q7LBE3); assay: Cl^−/HCO3^− exchange in CHO-K1 cells expressing SLC26A9; assay type: cell-based
T2 construct: expressed in transfected cells; host or cells: CHO-K1
Experimental: as §1

[1] = system: AN01, CFTR and ENaC ion channel activity; assay: Short circuit current in HNE cells; assay type: cell-based, human; details: long-term treatment (48 hours)
Experimental: (A) Representative tracing of intracellular pH of treated (grey line) and IL-4 (10 ng/ml) treated HNE cells. Pendrin was inhibited by F56 ([…]). (B) The mRNA expression level of pendrin was determined at the indicated time after treatment of F56 ([…]) by real-time quantitative PCR in IL-4-treated HBE cells (mean±S.E., n=3). (C) The Cl^−/HCO3^− exchange activity was measured in IL-4-treated HBE cells. F56 was pretreated for 5 minutes. (D, E) Short circuit current record of HNE cells. Representative tracing showing the effect of F56 on the ENaC, CFTR and CaCC channel activity. After exposing to F56 ([…]) for 48 hours, in presence or absence of IL-4, the channel activity was measured. Amiloride (100 μM), forskolin (20 μM, CFTRinh-172 (10 μM) and ATP (100 μM) were added to the apical bath. (F) The AN01, CFTR and ENaC mRNA expression level was determined at the indicated time after treatment of F56 ([…]) by real-time quantitative PCR in IL-4-treated HNE cells (mean±S.E., n=5) * P<0.05, ** P<0.01, *** P<0.001.
Snapwell inserts containing the primary culture of AN01- and CFTR-expressing FRT and human nasal cavity epithelium (HNE) cells were equipped on Ussing chamber (Physiologic Instruments, San Diego, CA, USA). […] Using Labchart Pro 7 (AD Instruments), data were recorded and analyzed. […]

Serum T3 and T4 in mice = assay type: in vivo, mouse; details: 10 mg/kg/day for 1 week
Experimental: The negative effect of F56 was examined by i.p administering of F56 10 mg/kg to female balb/c mice every 24 hours for 7 days. In 24 hours after the last administration, the hearing of mice was measured and serum was obtained. According to the manufacturer's protocol, the total serum level of triiodothyronine (T3) or thyroxine (T4) using a mouse ELISA kit (Calbiotech, T3043T-100 or T4044T-100).

pendrin = assay: Pendrin protein expression in LPS-treated human alveolar epithelial cells (hAEC); assay type: cell-based
Experimental: The lung tissue was harvested and dissolved in a homogenization buffer (PRO-PREP™ extraction solution, iNtRON Biotechnology). The sample was centrifuged at 4° C. for 30 minutes at 13000 g. The supernatant protein concentration was determined by BCA analysis (Thermo Fisher Scientific). The same amount of protein was separated by SDS/PAGE and transferred to a nitrocellulose membrane. The membrane was blocked with 5% skim milk in TBS-T (TBS (170-6435, Bio-Rad Laboratories) and 1% Tween-20 (170-6531, Bio-Rad Laboratories) for 1 hours. Then, the membrane was cultured overnight with the primary antibody diluted with 5% skim milk in TBS-T at 4° C. After washing with TBS-T, the blot was cultured with horseradish peroxidase-combined secondary antibody and 5% skim milk in TBS-T at a room temperature for 1 hour, and then developed using Super-Signal West Pico chemiluminescence detection kit. The antibody used in the present invention includes rabbit SLC26A4 (ab98091, abcam), mouse phospho-Iκ (9246, Cell Signaling Technology), mouse Iκ (4814, Cell Signaling Technology), and rabbit α-tubulin (PA5-16891, Cell Signaling Technology). Western blot quantization was performed using ImageJ (Image Processing and Analysis in Java; NIH, USA) software.

Duox2 mRNA = Duox2 mRNA expression in LPS-treated hAEC, real-time PCR; assay type: cell-based, human
Experimental: The total messenger RNA (mRNA) was extracted using TRIzol reagent (Invitrogen, Carlsbad, CA, USA), and was reverse-transcribed using a random hexamer primer, an oligo(dT) primer and SuperScript® III reverse transcriptase (Invitrogen). Quantitative real-time PCR was performed using StepOnePlus Real-Time PCR system (Applied Biosystems, Foster City, CA, USA) and Thunderbird SYBR qPCR mix (Tokyobo, Osaka, Japan). Thermal cycling conditions included the initial stage at 95° C. for 5 minutes, and subsequent 40 cycles at 95° C. for 10 seconds, at 55° C. for 20 seconds and at 72° C. for […].

T2 sequence (Q7LBE3 whole entry, species assumed): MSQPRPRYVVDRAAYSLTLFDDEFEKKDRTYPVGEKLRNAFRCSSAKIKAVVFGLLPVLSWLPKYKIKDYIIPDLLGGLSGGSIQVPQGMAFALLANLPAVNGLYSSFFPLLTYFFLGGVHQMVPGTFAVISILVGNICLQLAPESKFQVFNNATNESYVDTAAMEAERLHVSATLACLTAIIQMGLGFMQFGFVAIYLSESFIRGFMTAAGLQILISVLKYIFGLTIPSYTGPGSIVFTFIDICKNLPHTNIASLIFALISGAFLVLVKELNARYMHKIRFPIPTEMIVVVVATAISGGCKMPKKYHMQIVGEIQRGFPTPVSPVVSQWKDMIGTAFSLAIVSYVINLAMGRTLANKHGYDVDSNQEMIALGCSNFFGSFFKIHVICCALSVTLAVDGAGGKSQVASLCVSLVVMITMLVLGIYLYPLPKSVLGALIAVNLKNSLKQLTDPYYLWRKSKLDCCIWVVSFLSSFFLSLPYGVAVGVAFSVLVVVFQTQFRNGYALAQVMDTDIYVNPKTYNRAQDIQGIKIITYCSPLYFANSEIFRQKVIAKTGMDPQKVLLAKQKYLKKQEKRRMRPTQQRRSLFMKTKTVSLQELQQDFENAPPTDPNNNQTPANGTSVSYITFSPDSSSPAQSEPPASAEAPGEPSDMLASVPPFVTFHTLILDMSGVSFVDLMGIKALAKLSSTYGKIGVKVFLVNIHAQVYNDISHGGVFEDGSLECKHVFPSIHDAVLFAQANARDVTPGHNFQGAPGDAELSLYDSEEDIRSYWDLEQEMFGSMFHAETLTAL
T1 sequence (Q8TE54 whole entry, species assumed): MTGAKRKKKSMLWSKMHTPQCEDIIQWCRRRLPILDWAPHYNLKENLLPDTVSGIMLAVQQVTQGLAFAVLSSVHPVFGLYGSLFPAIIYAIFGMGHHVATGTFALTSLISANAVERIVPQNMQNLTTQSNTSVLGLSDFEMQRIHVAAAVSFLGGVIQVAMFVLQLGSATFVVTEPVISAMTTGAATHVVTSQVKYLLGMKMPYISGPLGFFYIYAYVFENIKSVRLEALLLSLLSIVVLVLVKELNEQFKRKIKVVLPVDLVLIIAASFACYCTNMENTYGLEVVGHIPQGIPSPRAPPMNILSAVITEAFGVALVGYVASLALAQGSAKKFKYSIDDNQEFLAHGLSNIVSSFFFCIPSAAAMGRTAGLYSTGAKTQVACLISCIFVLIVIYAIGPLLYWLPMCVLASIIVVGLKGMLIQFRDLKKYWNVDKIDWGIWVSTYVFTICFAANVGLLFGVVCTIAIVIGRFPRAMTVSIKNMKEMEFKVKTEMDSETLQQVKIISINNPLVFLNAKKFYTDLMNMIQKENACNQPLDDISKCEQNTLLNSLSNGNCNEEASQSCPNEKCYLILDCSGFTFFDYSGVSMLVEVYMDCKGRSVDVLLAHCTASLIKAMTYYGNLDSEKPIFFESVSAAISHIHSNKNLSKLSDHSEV

CC(C)(C)c1ccc(C2=NC(=Cc3cccs3)C(=O)O2)cc1 [F56, 2-(4-(tert-butyl)phenyl)-4-(thiophen-2-ylmethylene)oxazol-5(4H)-one]
effect on SLC26A7 Cl^−/HCO3^− exchange (SLC26A7): did not affect
effect on SLC26A9 Cl^−/HCO3^− exchange (SLC26A9): did not affect
ion channel activity of AN01, CFTR and ENaC [1]: did not change
T3 and T4 plasma level (Serum T3 and T4 in mice): not changed
protein expression level of pendrin (pendrin): reduced
mRNA expression level of Duox2 (Duox2 mRNA): did not change
